In PubChem BioAssay (NCI):
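Five concentrations, 48 hours, 96-well plates. Definition used: TGI = concentration required for complete inhibition of growth.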

Columns and labels:
Experiment in all cases: inhibition of tumour cell growth, NCI panel, 48 h
MDA-MB-231 breast = system: MDA-MB-231 breast
OVCAR-3 ovarian = system: OVCAR-3 ovarian
OVCAR-5 ovarian = system: OVCAR-5 ovarian
HOP-62 NSCLC = system: HOP-62 NSCLC
SK-MEL-5 melanoma = system: SK-MEL-5 melanoma
HL-60(TB) leukemia = system: HL-60(TB) leukemia
SK-MEL-2 melanoma = system: SK-MEL-2 melanoma
UO-31 renal = system: UO-31 renal
K-562 leukemia = system: K-562 leukemia
HCT-116 colon = system: HCT-116 colon
SNB-19 CNS = system: SNB-19 CNS
LOX IMVI melanoma = system: LOX IMVI melanoma
SR leukemia = system: SR leukemia
A549 NSCLC = system: A549 NSCLC
A498 renal = system: A498 renal
OVCAR-8 ovarian = system: OVCAR-8 ovarian
HOP-92 NSCLC = system: HOP-92 NSCLC
HT29 colon = system: HT29 colon
SK-OV-3 ovarian = system: SK-OV-3 ovarian
EKVX NSCLC = system: EKVX NSCLC
M14 melanoma = system: M14 melanoma
OVCAR-4 ovarian = system: OVCAR-4 ovarian
TK-10 renal = system: TK-10 renal
NCI-H23 lung = system: NCI-H23 lung
HCT-15 colon = system: HCT-15 colon
ACHN renal = system: ACHN renal
MOLT-4 leukemia = system: MOLT-4 leukemia
786-0 renal = system: 786-0 renal
CAKI-1 renal = system: CAKI-1 renal
UACC-62 melanoma = system: UACC-62 melanoma
PC-3 prostate = system: PC-3 prostate
MALME-3M melanoma = system: MALME-3M melanoma
IGROV1 ovarian = system: IGROV1 ovarian
SF-295 CNS = system: SF-295 CNS
NCI-H522 lung = system: NCI-H522 lung
UACC-257 melanoma = system: UACC-257 melanoma
MDA-N = system: MDA-N
MCF7 breast = system: MCF7 breast
NCI-H226 lung = system: NCI-H226 lung
HS 578T breast = system: HS 578T breast
SN12C renal = system: SN12C renal
SNB-75 CNS = system: SNB-75 CNS
NCI/ADR-RES ovarian = system: NCI/ADR-RES ovarian
RPMI-8226 leukemia = system: RPMI-8226 leukemia
U251 CNS = system: U251 CNS
DU-145 prostate = system: DU-145 prostate
CCRF-CEM leukemia = system: CCRF-CEM leukemia
T-47D breast = system: T-47D breast
MDA-MB-435 = system: MDA-MB-435
COLO 205 colon = system: COLO 205 colon
SF-539 CNS = system: SF-539 CNS
RXF 393 renal = system: RXF 393 renal
BT-549 breast = system: BT-549 breast
SF-268 CNS = system: SF-268 CNS
NCI-H460 lung = system: NCI-H460 lung
KM12 colon = system: KM12 colon
SK-MEL-28 melanoma = system: SK-MEL-28 melanoma
SW-620 colon = system: SW-620 colon

For `S=C(NC/C(Br)=C/Br)Nc1cccc2ccccc12`, the TGI (MDA-MB-231 breast) was 51.3 µM, the TGI (OVCAR-3 ovarian) was 71.8 µM and the TGI (OVCAR-5 ovarian) was greater than 100 µM. It also gave a TGI (HOP-62 NSCLC) of 94 µM, a TGI (SK-MEL-5 melanoma) of 34.3 µM and a TGI (HL-60(TB) leukemia) of 37.3 µM. The TGI (SK-MEL-2 melanoma) was 48.5 µM, the TGI (UO-31 renal) was 55.2 µM and the TGI (K-562 leukemia) was 31 µM. The TGI (HCT-116 colon) was 61.9 µM, the TGI (SNB-19 CNS) was greater than 100 µM and the TGI (LOX IMVI melanoma) was greater than 100 µM. It also gave a TGI (SR leukemia) greater than 100 µM, a TGI (A549 NSCLC) greater than 100 µM and a TGI (A498 renal) of 90.4 µM. The TGI (OVCAR-8 ovarian) was greater than 100 µM, the TGI (HOP-92 NSCLC) was 55.9 µM and the TGI (HT29 colon) was greater than 100 µM. It also gave a TGI (SK-OV-3 ovarian) greater than 100 µM, a TGI (EKVX NSCLC) greater than 100 µM and a TGI (M14 melanoma) of 43.7 µM. The TGI (OVCAR-4 ovarian) was greater than 100 µM, the TGI (TK-10 renal) was greater than 100 µM and the TGI (NCI-H23 lung) was 74.5 µM. The TGI (HCT-15 colon) was greater than 100 µM, the TGI (ACHN renal) was 86.6 µM and the TGI (MOLT-4 leukemia) was 46.8 µM. The TGI (786-0 renal) was greater than 100 µM, the TGI (CAKI-1 renal) was greater than 100 µM and the TGI (UACC-62 melanoma) was 67.7 µM. The TGI (PC-3 prostate) was 71.7 µM, the TGI (MALME-3M melanoma) was 78.8 µM and the TGI (IGROV1 ovarian) was greater than 100 µM. For the same molecule, the TGI (SF-295 CNS) was greater than 100 µM, the TGI (NCI-H522 lung) was 74.6 µM and the TGI (UACC-257 melanoma) was greater than 100 µM. For the same molecule, the TGI (MDA-N) was 72.7 µM, the TGI (MCF7 breast) was 44.4 µM and the TGI (NCI-H226 lung) was greater than 100 µM. For the same molecule, the TGI (HS 578T breast) was greater than 100 µM, the TGI (SN12C renal) was 53.1 µM and the TGI (SNB-75 CNS) was greater than 100 µM. The TGI (NCI/ADR-RES ovarian) was 50.9 µM, the TGI (RPMI-8226 leukemia) was 44.7 µM and the TGI (U251 CNS) was greater than 100 µM. The TGI (DU-145 prostate) was greater than 100 µM, the TGI (CCRF-CEM leukemia) was 66.2 µM and the TGI (T-47D breast) was greater than 100 µM. For the same molecule, the TGI (MDA-MB-435) was greater than 100 µM, the TGI (COLO 205 colon) was 32.7 µM and the TGI (SF-539 CNS) was 69.1 µM. It also gave a TGI (RXF 393 renal) greater than 100 µM and a TGI (BT-549 breast) of 84.6 µM.
In the case of `COc1ccc(C(=O)N/N=C2\C(=O)c3c(C)cc(C)cc3CC2(C)C)cc1`, the TGI (MDA-MB-231 breast) is reported as 56.1 µM, the TGI (OVCAR-3 ovarian) is reported as 30.9 µM and the TGI (OVCAR-5 ovarian) is reported as 55.5 µM. It also gave a TGI (HOP-62 NSCLC) of 37.4 µM, a TGI (SK-MEL-5 melanoma) of 31.9 µM and a TGI (HL-60(TB) leukemia) of 51.5 µM. For the same molecule, the TGI (SK-MEL-2 melanoma) was 36.2 µM, the TGI (K-562 leukemia) was 64.7 µM and the TGI (HCT-116 colon) was 32.1 µM. For the same molecule, the TGI (SNB-19 CNS) was 84 µM, the TGI (LOX IMVI melanoma) was 34.2 µM and the TGI (SR leukemia) was 47.9 µM. The TGI (A549 NSCLC) was 44.2 µM, the TGI (A498 renal) was 42.4 µM and the TGI (OVCAR-8 ovarian) was 56.6 µM. The TGI (HOP-92 NSCLC) was 31.3 µM, the TGI (HT29 colon) was 36.9 µM and the TGI (SK-OV-3 ovarian) was greater than 100 µM. It also gave a TGI (EKVX NSCLC) of 70.1 µM, a TGI (M14 melanoma) of 38.8 µM and a TGI (OVCAR-4 ovarian) greater than 100 µM. For the same molecule, the TGI (TK-10 renal) was greater than 100 µM, the TGI (SF-268 CNS) was 42.9 µM and the TGI (NCI-H23 lung) was greater than 100 µM. It also gave a TGI (HCT-15 colon) of 64.3 µM, a TGI (NCI-H460 lung) of 78.4 µM and a TGI (ACHN renal) of 58.7 µM. The TGI (MOLT-4 leukemia) was 37.3 µM, the TGI (786-0 renal) was 36.1 µM and the TGI (CAKI-1 renal) was greater than 100 µM. It also gave a TGI (UACC-62 melanoma) of 31.6 µM, a TGI (PC-3 prostate) of 47.7 µM and a TGI (MALME-3M melanoma) of 31.6 µM. For the same molecule, the TGI (IGROV1 ovarian) was 41.5 µM, the TGI (SF-295 CNS) was 40.1 µM and the TGI (NCI-H522 lung) was 33.6 µM. It also gave a TGI (UACC-257 melanoma) of 98.5 µM, a TGI (MDA-N) of 39.3 µM and a TGI (MCF7 breast) of 36.4 µM. It also gave a TGI (NCI-H226 lung) of 45.7 µM, a TGI (HS 578T breast) of 41.9 µM and a TGI (SN12C renal) of 37.2 µM. It also gave a TGI (SNB-75 CNS) of 56.5 µM, a TGI (NCI/ADR-RES ovarian) of 80.6 µM and a TGI (RPMI-8226 leukemia) of 57.5 µM. It also gave a TGI (KM12 colon) of 39.9 µM, a TGI (SK-MEL-28 melanoma) of 42.2 µM and a TGI (U251 CNS) of 31.9 µM. The TGI (DU-145 prostate) was 63.8 µM, the TGI (CCRF-CEM leukemia) was 65.6 µM and the TGI (T-47D breast) was 40.4 µM. It also gave a TGI (MDA-MB-435) of 35.1 µM, a TGI (COLO 205 colon) of 49.3 µM and a TGI (SW-620 colon) of 84.2 µM. It also gave a TGI (SF-539 CNS) of 46 µM, a TGI (RXF 393 renal) of 32.6 µM and a TGI (BT-549 breast) of 36.2 µM.
